For assay [1], the system named is opiate receptor. As to the kind of experiment: relative displacement potency, procedure of Chang et al. The class given is binding. The settings on record: relative to morphine.
Another assay concerns CF-1 mice. As to the kind of experiment: phenylbenzoquinone induced writhing test (analgesia). The class given is in vivo.
For assay [2] the following is noted: peripheral administration; cited from earlier work.
The conditions of assay [3]: intravenous administration; cited from earlier work.
The test system of another assay is rats. The settings on record: injection in the brain ventricle, fully reversible by naloxone; cited from earlier work.
For the next assay, the system named is guinea pig ileum. The settings on record: cited from earlier work.
The test system of the next assay is mouse vas deferens. The settings on record: cited from earlier work.
Assay [4] concerns opiate receptor. The settings on record: brain homogenates; cited from earlier work.
For assay [5] the following is noted: Coy et al.; cited from earlier work.
For assay [6] the following is noted: intracerebroventricular; cited from earlier work.

Non-standard residues stand in square brackets, D forms with d. Residues, ends and D or L forms follow the SMILES beside them.

Turning to `CN[C@@H](Cc1ccc(O)cc1)C(=O)N[C@H](CS)C(=O)NCC(=O)N(C)[C@@H](Cc1ccccc1)C(=O)N[C@H](CC(N)=O)C(N)=O` [Example 4, N-Methyl-L-tyrosyl-D-cysteinyl-glycyl-N-methyl-L-phenylalanyl-D-asparagine amide], the relative displacement potency entry in the assay on opiate receptor [1] is listed as “two”. Also, the “percent analgesia after oral administration” value in the assay on CF-1 mice (oral dose of 50 mg/kg, 30 minutes) is reported as 10%. Also, the “ED50 (analgesia, absence of writhing)” value with CF-1 mice (subcutaneous administration, at 15 minutes, mice) is on record as 0.64 (0.29-1.4) mg/kg.
With `CSCC[C@H](NC(=O)[C@H](Cc1ccccc1)NC(=O)CNC(=O)[C@@H](C)NC(=O)[C@@H](N)Cc1ccc(O)cc1)C(N)=O` [Tyr-D-Ala-Gly-Phe-Met-amide], in assay [2], the “activity when administered peripherally” value is “inactive”.
Regarding `CSCC[C@@H](NC(=O)[C@@H](N)Cc1ccc(O)cc1)C(=O)NCC(=O)N[C@@H](Cc1ccccc1)C(=O)N1CCC[C@H]1C(N)=O` [Tyr-D-Met-Gly-Phe-Pro-NH2] (H-Y[dM]GFP-NH2), the “antinociceptive potency relative to morphine” value in assay [3] is 5.5 times more potent than morphine.
Consider `CC(C)C[C@H](NC(=O)[C@H](Cc1ccccc1)NC(=O)CNC(=O)CNC(=O)[C@@H](N)Cc1ccc(O)cc1)C(=O)O` [leucine-enkephalin, H-Tyr-Gly-Gly-Phe-Leu-OH], for which the analgesia result with rats is given as “profound analgesia”.
On to `CSCC[C@H](NC(=O)[C@H](Cc1ccccc1)NC(=O)CNC(=O)CNC(=O)[C@@H](N)Cc1ccc(O)cc1)C(=O)O` [methionine-enkephalin, H-Tyr-Gly-Gly-Phe-Met-OH], for which the analgesia result in the assay with rats is recorded as “profound analgesia”. Also, the “block of electrically evoked contractions” value in the assay on guinea pig ileum and in the assay on mouse vas deferens was “block electrically evoked contractions” in each case. In addition, in the assay on opiate receptor [4], the “inhibition of stereospecific receptor binding of 3H-naloxone” value is given as “inhibit”.
D-Met^5 enkephalin: the “activity relative to Met enkephalin” value in [5] is reported as “one tenth”.
On to Tyr-D-Ala-Gly-Phe-D-Leu, for which the “activity when administered intracerebroventricularly” value in assay [6] was “activity”.
